According to BindingDB's records for patent US9273014 (Bristol-Myers Squibb Co., 2016):

Molecular target: Neurogenic locus notch homolog protein 3 (Human, UniProt Q9UM47)
Test: Biological Assay

Sequence of Neurogenic locus notch homolog protein 3 (Q9UM47 whole entry): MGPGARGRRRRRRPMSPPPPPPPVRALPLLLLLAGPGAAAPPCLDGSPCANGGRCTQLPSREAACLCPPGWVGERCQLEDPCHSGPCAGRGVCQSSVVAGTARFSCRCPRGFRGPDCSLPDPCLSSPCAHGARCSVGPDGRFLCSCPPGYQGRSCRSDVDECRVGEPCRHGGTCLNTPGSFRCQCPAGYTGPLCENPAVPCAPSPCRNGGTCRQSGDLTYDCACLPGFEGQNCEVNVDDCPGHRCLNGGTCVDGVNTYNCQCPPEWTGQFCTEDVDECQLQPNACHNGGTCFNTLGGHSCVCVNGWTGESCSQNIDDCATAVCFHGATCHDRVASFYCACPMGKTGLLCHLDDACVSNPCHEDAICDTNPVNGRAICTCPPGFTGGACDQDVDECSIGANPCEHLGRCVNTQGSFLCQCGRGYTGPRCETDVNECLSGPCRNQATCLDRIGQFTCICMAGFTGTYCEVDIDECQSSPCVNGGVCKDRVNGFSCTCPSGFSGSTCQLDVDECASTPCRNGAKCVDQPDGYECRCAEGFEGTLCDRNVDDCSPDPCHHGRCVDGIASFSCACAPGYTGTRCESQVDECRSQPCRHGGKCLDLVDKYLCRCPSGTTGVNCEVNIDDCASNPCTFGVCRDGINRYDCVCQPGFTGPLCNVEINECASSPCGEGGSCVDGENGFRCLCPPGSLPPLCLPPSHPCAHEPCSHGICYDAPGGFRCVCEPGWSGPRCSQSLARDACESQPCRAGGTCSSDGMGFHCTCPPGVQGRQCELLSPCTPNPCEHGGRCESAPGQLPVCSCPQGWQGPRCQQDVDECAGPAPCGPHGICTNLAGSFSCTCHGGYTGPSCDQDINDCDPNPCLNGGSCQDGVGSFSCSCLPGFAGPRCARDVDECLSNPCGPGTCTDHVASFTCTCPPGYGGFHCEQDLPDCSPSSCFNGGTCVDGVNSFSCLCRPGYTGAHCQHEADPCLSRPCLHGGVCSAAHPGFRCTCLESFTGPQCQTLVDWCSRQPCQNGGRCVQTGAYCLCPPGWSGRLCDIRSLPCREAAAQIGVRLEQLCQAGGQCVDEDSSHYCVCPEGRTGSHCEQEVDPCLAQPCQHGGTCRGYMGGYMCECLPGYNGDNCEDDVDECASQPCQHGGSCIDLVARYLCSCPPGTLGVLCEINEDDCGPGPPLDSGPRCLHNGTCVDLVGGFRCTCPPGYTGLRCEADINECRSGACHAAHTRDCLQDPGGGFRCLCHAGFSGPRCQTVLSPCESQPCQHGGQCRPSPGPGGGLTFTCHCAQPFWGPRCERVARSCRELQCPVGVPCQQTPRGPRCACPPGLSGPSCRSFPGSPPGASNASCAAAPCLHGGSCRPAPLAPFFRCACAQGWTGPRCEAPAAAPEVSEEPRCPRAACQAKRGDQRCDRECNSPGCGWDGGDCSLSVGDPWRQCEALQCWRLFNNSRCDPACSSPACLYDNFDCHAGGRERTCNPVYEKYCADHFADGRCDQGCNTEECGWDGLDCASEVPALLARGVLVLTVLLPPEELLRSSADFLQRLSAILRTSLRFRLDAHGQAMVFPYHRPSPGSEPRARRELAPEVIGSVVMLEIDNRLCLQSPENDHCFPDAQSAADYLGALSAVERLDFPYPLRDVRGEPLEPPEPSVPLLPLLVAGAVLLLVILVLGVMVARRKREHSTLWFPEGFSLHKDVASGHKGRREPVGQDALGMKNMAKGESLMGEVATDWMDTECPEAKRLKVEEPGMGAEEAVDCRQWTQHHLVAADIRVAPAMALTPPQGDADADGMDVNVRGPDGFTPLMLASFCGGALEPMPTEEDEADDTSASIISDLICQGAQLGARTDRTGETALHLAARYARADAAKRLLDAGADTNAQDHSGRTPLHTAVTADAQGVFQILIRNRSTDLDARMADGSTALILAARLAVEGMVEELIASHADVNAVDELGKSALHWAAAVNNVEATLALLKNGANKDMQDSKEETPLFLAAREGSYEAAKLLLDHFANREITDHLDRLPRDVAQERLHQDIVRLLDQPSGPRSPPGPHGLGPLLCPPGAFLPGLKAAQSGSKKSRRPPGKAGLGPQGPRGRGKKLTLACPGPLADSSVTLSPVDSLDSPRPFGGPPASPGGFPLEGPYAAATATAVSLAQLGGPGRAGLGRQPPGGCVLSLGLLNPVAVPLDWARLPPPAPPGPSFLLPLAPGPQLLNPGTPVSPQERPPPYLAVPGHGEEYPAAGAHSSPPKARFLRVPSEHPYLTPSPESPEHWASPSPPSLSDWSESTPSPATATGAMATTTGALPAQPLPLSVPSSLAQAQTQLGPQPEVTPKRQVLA

| Compound | IC50 [nM] |
| --- | --- |
| CC(C)c1cccc2c1NC(=O)[C@@H](NC(=O)[C@H](CCC(F)(F)F)[C@H](CCC(F)(F)F)C(N)=O)N=C2c1ccccc1 [US9273014, 13] | 4.9 |
| COc1cccc2c1NC(=O)[C@@H](NC(=O)[C@H](CCC(F)(F)F)[C@H](CCC(F)(F)F)C(N)=O)N=C2c1cccc(C)c1 [US9273014, 29] | 5.7 |
